Measurements taken from US10092584B2 (Achillion Pharmaceuticals, Inc., priority 2015, dated 2018).
Where two headings read alike, the source gives them in different places.

Target: T1, Human Factor D (Homo sapiens, UniProt P00746)
T1 construct: purified from human serum; purchased Complement Technology, Inc; host or cells: human serum
Test: Human Factor D assay (Example 8)
Assay type: biochemical
Method: Human Factor D (purified from human serum, Complement Technology, Inc.) at 80 nM final concentration was incubated with test compound at various concentrations for 5 minutes at room temperature in 50 mM Tris, 1M NaCl, pH 7.5. A synthetic substrate Z-L-Lys-SBzl and DTNB (Ellman's reagent) are added to final concentrations of 100 μM each. […] IC50 values are calculated by nonlinear regression of complement Factor D reaction rates as a function of test compound concentration.

[1] = Table 1, Human Factor D 80 nM, substrate Z-L-Lys-SBzl, read-out: IC50
[2] = Table 2, Human Factor D 80 nM, substrate Z-L-Lys-SBzl, read-out: IC50

T1 sequence (P00746 26-253): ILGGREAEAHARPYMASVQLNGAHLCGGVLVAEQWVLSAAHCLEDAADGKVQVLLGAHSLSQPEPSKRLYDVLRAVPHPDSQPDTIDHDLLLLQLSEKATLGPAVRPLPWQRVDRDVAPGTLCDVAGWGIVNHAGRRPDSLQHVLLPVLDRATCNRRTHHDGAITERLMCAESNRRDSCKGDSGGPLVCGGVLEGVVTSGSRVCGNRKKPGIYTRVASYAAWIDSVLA

## COc1ccc2c(O[C@@H]3C[C@@H](C(=O)NCc4cccc(Cl)c4F)N(C(=O)Nc4cn(C(C)=O)c5ccccc45)C3)cc(-c3ccccc3)nc2c1 [Compound 19, (2S,4R)-N1-(1-acetyl-1H-indol-3-yl)-N2-(3-chloro-2-fluorobenzyl)-4-(7-methoxy-2-phenylquinolin-4-yloxy)pyrrolidine-1,2-dicarboxamide]
[1]
  IC50: > 10000 nM

## CC(=O)n1cc(NC(=O)N2C[C@H](F)C[C@H]2C(=O)NS(=O)(=O)c2cccc(Cl)c2F)c2ccccc21 [Compound 7, (2S,4R)-N1-(1-acetyl-1H-indol-3-yl)-N2-(3-chloro-2-fluorophenylsulfonyl)-4-fluoropyrrolidine-1,2-dicarboxamide]
[1]
  IC50: > 10000 nM

## NC(=O)c1nn(CC(=O)N2CC(=O)C[C@H]2C(=O)Nc2cccc(-c3ccccc3Cl)c2F)c2ccccc12 [Compound 134, (S)-1-(2-(2-(2′-chloro-2-fluorobiphenyl-3-ylcarbamoyl)-4-oxopyrrolidin-1-yl)-2-oxoethyl)-1H-indazole-3-carboxamide]
[2]
  IC50: < 1000 nM

## CC(=O)c1cn(CC(=O)N2C[C@H](F)C[C@H]2C(=O)Nc2cccc(-c3cc(F)cc(F)c3Cl)c2F)c2ccccc12 [Compound 95, (2S,4R)-1-(2-(3-acetyl-1H-indol-1-yl)acetyl)-N-(2′-chloro-2,3′,5′-trifluorobiphenyl-3-yl)-4-fluoropyrrolidine-2-carboxamide]
  IC50: < 1000 nM

## CC(=O)c1cn(CC(=O)N2C[C@H](F)C[C@H]2C(=O)Nc2cccc(Br)n2)c2ccc(C3(NC(=O)c4cncnc4)CC3)cc12 [Compound 126, N-(1-(3-acetyl-1-(2-((2S,4R)-2-(6-bromopyridin-2-ylcarbamoyl)-4-fluoropyrrolidin-1-yl)-2-oxoethyl)-1H-indol-5-yl)cyclopropyl) pyrimidine-5-carboxamide]
[1]
  IC50: < 1000 nM

## O=C1CCCc2c1c1ccccc1n2CC(=O)N1C[C@H](F)C[C@H]1C(=O)NCc1cccc(Cl)c1F [Compound 37, (2S,4R)-N-(3-chloro-2-fluorobenzyl)-4-fluoro-1-(2-(4-oxo-3,4-dihydro-1H-carbazol-9(2H)-yl)acetyl)pyrrolidine-2-carboxamide]
[1]
  IC50: < 1000 nM

## CC(=O)n1cc(CC(=O)N2C[C@H](F)C[C@H]2C(=O)Nc2cccc(-c3ccccc3Cl)c2F)c2ccsc21 [Compound 90, (2S,4R)-1-(2-(6-acetyl-6H-thieno[2,3-b]pyrrol-4-yl)acetyl)-N-(2′-chloro-2-fluorobiphenyl-3-yl)-4-fluoropyrrolidine-2-carboxamide]
[1]
  IC50: < 1000 nM

## NC(=O)c1nn(CC(=O)N2C[C@H](F)C[C@H]2C(=O)Nc2cccc(-c3cc(F)c(F)cc3Cl)c2F)c2ccc(Br)cc12 [Compound 130, 5-bromo-1-(2-((2S,4R)-2-(2′-chloro-2,4′,5′-trifluorobiphenyl-3-ylcarbamoyl)-4-fluoropyrrolidin-1-yl)-2-oxoethyl)-1H-indazole-3-carboxamide]
[2]
  IC50: < 1000 nM

## NC(=O)c1nn(CC(=O)N2C[C@H](F)C[C@H]2C(=O)Nc2cccc(-c3cc(F)cc(F)c3Cl)c2F)c2ccccc12 [Compound 94, 1-(2-((2S,4R)-2-(2′-chloro-2,3′,5′-trifluorobiphenyl-3-ylcarbamoyl)-4-fluoropyrrolidin-1-yl)-2-oxoethyl)-1H-indazole-3-carboxamide]
  IC50: < 1000 nM

## NC(=O)c1nn(CC(=O)N2C[C@H](F)[C@@H](O)[C@H]2C(=O)Nc2cccc(-c3ccccc3Cl)c2F)c2ccccc12 [Compound 279, 1-(2-((2S,3S,4S)-2-(2′-Chloro-2-fluorobiphenyl-3-ylcarbamoyl)-4-fluoro-3-hydroxypyrrolidin-1-yl)-2-oxoethyl)-1H-indazole-3-carboxamide]
Table 3, Human Factor D 80 nM, substrate Z-L-Lys-SBzl, read-out: IC50 (Stars)
  IC50: < 1000 nM

## NC(=O)c1nn(CC(=O)N2C[C@H](F)C[C@H]2C(=O)Nc2cccc(-c3ccccc3Cl)c2F)c2ccsc12 [Compound 99, 1-(2-((2S,4R)-2-((2′-Chloro-2-fluoro-[1,1′-biphenyl]-3-yl)carbamoyl)-4-fluoropyrrolidin-1-yl)-2-oxoethyl)-1H-thieno[3,2-c]pyrazole-3-carboxamide]
[1]
  IC50: < 1000 nM
